Data: paper PMC4749642, “Evaluation of anticonvulsant and antinociceptive properties of new N-Mannich bases derived from pyrrolidine-2,5-dione and 3-methylpyrrolidine-2,5-dione” (Naunyn-Schmiedeberg's Archives of Pharmacology, 2015)
“And” between values parts separate entries of the source, which are not always exact repeats. Equal values may be shown once. Read-outs that look alike come from different tables or passages of the source. Marks after values point to notes of the source that are not given here.

What was measured:
[1] = system: V. harveyi BB7; test: Vibrio harveyi antimutagenicity assay (vs NQNO), BB7 strain; format: cell-based; details: for inhibition of NQNO-induced mutagenicity in BB7 strain (in words): NQNO 40 ng/ml; for Antimutagenicity BB7 number of revertants Mean ± SD: test compound plus NQNO 40 ng/ml (NQNO line: mutagen only); for Antimutagenicity BB7 Inhib. (%) of mutagenicity: test compound plus NQNO 40 ng/ml, 25–40 % moderate, 40 % or more strong
Protocol: (§1) Two V. harveyi strains were used in the experiments: wild-type BB7 and genetically modified BB7XM (the UV-hypersensitive strain bearing plasmid pAB91273), which were described previously by Czyż et al. ([2000]).
(§2) Antimutagenicity assay was performed according to previously described procedures (Czyż et al. [2002]; Pękala et al. [2013]). […] This was calculated as follows: Inhibition (%) = 100 − [(R1/R2) × 100], where R1 is the number of revertants per plate induced by test compound plus mutagen and R2 is the number of revertants in the plate containing only the mutagen (Słoczyńska et al. [2010]). No antimutagenic effect was considered when the inhibition was less than 25 %; a moderate effect for an inhibition value between 25 and 40 % and a strong antimutagenicity were recorded for inhibition higher than 40 % (Gulluce et al. [2010]).

[2] = system: mice; test: Formalin hind paw test; format: in vivo, mouse; details: dose 30 mg/kg i.p.; for antinociceptive effect (reduction of licking response), second (late) phase: 15–30 min after 5 % formalin
Protocol: (§3) Male CD-1 mice weighing 18–24 g were used in the in vivo experiment. The animals were kept at room temperature of 20 ± 2 °C under standard conditions (12:12 h light-dark cycle, standard pellet diet, tap water). All the experiments were performed between 8 a.m. and 3 p.m. For the experiments, the animals were selected in a random way and sacrificed by cervical dislocation immediately after the assay. The experimental protocol was approved by the Local Ethics Commission for Animal Experiments of the Jagiellonian University in Cracow, and all experiences were conducted in accordance with the 1996 NIH Guide for the Care and Use of Laboratory Animals.
(§4) The tested compounds 12 (N-[{4-(3,4-dichlorophenyl)-piperazin-1-yl}-methyl]-3-methylpyrrolidine-2,5-dione), 13 (N-[{4-(3-trifluoromethylphenyl)-piperazin-1-yl}-methyl]-3-methylpyrrolidine-2,5-dione), 15 (N-[{4-(3-methylphenyl)-piperazin-1-yl}-methyl]-3-methylpyrrolidine-2,5-dione), 23 (N-[{4-(3,4-dichlorophenyl)-piperazin-1-yl}-methyl]-pyrrolidine-2,5-dione), and 24 (N-[{4-(3-trifluoromethylphenyl)-piperazin-1-yl}-methyl]-pyrrolidine-2,5-dione) were synthesized at the Department of Medicinal Chemistry, Jagiellonian University Medical College in Cracow (Scheme 1). The synthesis of the investigated compounds was described earlier (Rybka et al. [2014]). The investigated compounds were suspended in a 0.5 % aqueous solution of methylcellulose (Loba Chemie, Germany). Lacosamide (Vimpat, UCB Pharma, Belgium), pilocarpine (Sigma-Aldrich, Germany), scopolamine butylbromide (Sigma-Aldrich, Germany), and formaldehyde (POCh, Poland) were dissolved in distilled water. Agents were administered intraperitoneally (i.p.) at a volume of 0.1 ml/10 g. Control animals were administered an equivalent volume of vehicle (0.5 % aqueous solution of methylcellulose) via the same route as the test compounds.
Antinociceptive activity in the formalin hind paw test was examined according to Laughlin et al. ([2002]). Twenty microliters of a 5 % formalin solution was injected intraplantarly (i.pl.) into the right hind paw of the mouse. […] Time (in seconds) spent on licking or biting the injected hind paw in selected intervals, 0–5 and 15–30 min, was measured in each experimental group and was an indicator of nociceptive behavior. In mice, intraplantarly injection of diluted formalin produces a biphasic nocifensive behavioral response (i.e., licking or biting the injected hind paw). The acute nociceptive phase lasts for the first 5 min, whereas the second inflammatory phase occurs between 15 and 30 min after formalin injection.

[3] = system: L-type calcium channel (dihydropyridine site); test: L-type Ca channel (dihydropyridine site) [3H]nitrendipine binding assay; details: rat cerebral cortex
[4] = system: V. harveyi BB7XM; test: Vibrio harveyi mutagenicity assay, BB7XM strain; details: 40 ng/ml; for Mutagenicity BB7XM M.I. (mutagenic index): positive assay when M.I. ≥ 2
Protocol: as §1
(§5) Mutagenicity assay was performed as described previously (Czyż et al. [2000]). All experiments were carried out in triplicate and the results were expressed as mutagenic index (M.I. = the number of revertant colonies induced in the tested sample/the number of spontaneous revertants in the negative control) (Gulluce et al. [2010]).

[5] = system: mice; test: Pilocarpine-induced seizure test; format: in vivo, mouse; details: for Latency to status epilepticus (s) ± SEM: 4 h before pilocarpine 400 mg/kg; for Anticonvulsant effect (%) (prolongation of latency time to seizures vs vehicle): 4 h before pilocarpine, 100 mg/kg
Protocol: as §3, §4
The experimental procedure was originally described by Turski et al. ([1987]). Seizures were induced in mice by i.p. injection of pilocarpine at a dose of 400 mg/kg. Forty-five minutes before pilocarpine, animals were also pretreated with scopolamine butylbromide (1 mg/kg, i.p.) to reduce peripheral autonomic side effects and masticatory and stereotyped movements (Kowalczyk et al. [2014]). Direct observation was performed for 60 min to monitor the latency time to the onset of the limbic seizures, characterized by a subsequent development of behavioral symptoms, such as tremor, head bobbing, and myoclonic movements of the forelimbs progressing to recurrent myoclonic convulsions with rearing, salivation, falling, and status epilepticus (Łuszczki et al. [2008]; Turski [2000]).

[6] = system: mice; test: Hot plate test; format: in vivo, mouse; details: dose 30 mg/kg i.p.
Protocol: as §3, §4
In the hot plate test, the mice were i.p. pretreated either with the test compound or vehicle before placing the animal on the hot plate apparatus (Panlab/Harvard Apparatus, Spain). This apparatus has an electrically heated surface and is supplied with a temperature controller that maintains the temperature at 55–56 °C. The time to the first reaction (licking or jumping) of mice to a nociceptive stimulus was recorded. The cutoff time was established to 60 s to avoid paw tissue damage (Sałat et al. [2014]).

[7] = system: V. harveyi BB7; test: Vibrio harveyi mutagenicity assay, BB7 strain; details: 40 ng/ml; for Mutagenicity BB7 M.I. (mutagenic index): positive assay when M.I. ≥ 2
Protocol: as §1, §5

[8] = system: mice; details: ref Rybka et al. [2014]; cited from earlier work
[9] = system: V. harveyi BB7XM; test: Vibrio harveyi antimutagenicity assay (vs NQNO), BB7XM strain; format: cell-based; details: for Antimutagenicity BB7XM number of revertants Mean ± SD: test compound plus NQNO 40 ng/ml (NQNO line: mutagen only); for Antimutagenicity BB7XM Inhib. (%) of mutagenicity: test compound plus NQNO 40 ng/ml, 25–40 % moderate, 40 % or more strong
Protocol: as §1, §2

[10] = system: mice; design: method as in Rybka et al. [2014]; details: ref Rybka et al. [2014], cited from earlier work; for motor coordination in the rotarod test (in words): up to a dose of 500 mg/kg
[11] = system: mice; test: Spontaneous locomotor activity (photoresistor actometers); format: in vivo, mouse; details: dose 30 mg/kg i.p.; 30-min session
Protocol: as §3, §4
Locomotor activity was measured with photoresistor actometers (Ugo Basile, Italy) connected to a counter for the recording of light-beam interruptions. Mice were individually placed in plastic cages for 30 min habituation period, and then the number of light-beam crossings was counted for a 30-min session. The cages were cleaned up with 70 % ethanol after each mouse.

[12] = system: mice; test: Electroconvulsive threshold test (MEST test); format: in vivo, mouse; details: 4 h before the test; for CS50 (mA) (CI): value with 95 % confidence interval
[13] = system: L-type calcium channel (dihydropyridine site); design: method as in Kamiński et al. [2015b]; details: 100 μM; [3H]nitrendipine; rat cerebral cortex; ref Kamiński et al. [2015b]; cited from earlier work

CC1CC(=O)N(CN2CCN(c3ccc(Cl)c(Cl)c3)CC2)C1=O (centres unmarked) [Compound 12, N-[{4-(3,4-dichlorophenyl)-piperazin-1-yl}-methyl]-3-methylpyrrolidine-2,5-dione]
inhibition of NQNO-induced mutagenicity in BB7 strain (in words) [1]: moderate inhibitors | Antimutagenicity BB7 number of revertants Mean ± SD [1]: 28 ± 4 | Antimutagenicity BB7 Inhib. (%) of mutagenicity [1]: (26) % | reduction of the duration of the licking response, first (neurogenic) phase ([2]; 0–5 min after 5 % formalin): 39% | antinociceptive effect (reduction of licking response), second (late) phase [2]: 74% | % inhibition of control specific binding ([3]; 10 μM): 20.2% | % inhibition of control specific binding ([3]; 100 μM): 59.4% | Mutagenicity BB7XM number of revertants Mean ± SD [4]: 14 ± 6 | Mutagenicity BB7XM M.I. (mutagenic index) [4]: 1.2 | Latency to status epilepticus (s) ± SEM ([5]; dose 100 mg/kg i.p.): 468.8 ± 39.60 s | Anticonvulsant effect (%) (prolongation of latency time to seizures vs vehicle) ([5]; dose 100 mg/kg i.p.): 37% and 36.8% | prolongation of latency time to pain reaction vs vehicle [6]: 44% | latency time to pain reaction ([6]; mean ± SEM, vehicle 27.51 ± 1.36 s, cutoff 60 s): 39.73 ± 3.20 s | Mutagenicity BB7 number of revertants Mean ± SD [7]: 25 ± 4 | Mutagenicity BB7 M.I. (mutagenic index) [7]: 1.5 | ED50 in the s.c.PTZ test [8]: 134.0 mg/kg | Antimutagenicity BB7XM number of revertants Mean ± SD [9]: 23 ± 5 | Antimutagenicity BB7XM Inhib. (%) of mutagenicity [9]: (5) % | TD50 in rotarod test ([10]; mice): > 500 mg/kg | motor coordination in the rotarod test (in words) [10]: did not impair the motor coordination | influence on locomotor activity (number of crossings, in words) [11]: did not significantly influence on locomotor activity | increase of electroconvulsive threshold (ECT) vs vehicle ([12]; dose 10 mg/kg i.p.): 51% | CS50 (mA) (CI) ([12]; dose 10 mg/kg i.p.): 7.94 (6.57–9.57)*** mA | increase of electroconvulsive threshold (ECT) vs vehicle ([12]; dose 30 mg/kg i.p.): 118% | CS50 (mA) (CI) ([12]; dose 30 mg/kg i.p.): 14.27 (8.21–24.80)** mA

CC1(C)O[C@@H]2[C@@H](CO[C@@]3(COS(N)(=O)=O)OC(C)(C)O[C@@H]23)O1 [Topiramate]
% inhibition of control specific binding [13]: 7.9%

O=C1CCC(=O)N1CN1CCN(c2ccc(Cl)c(Cl)c2)CC1 [Compound 23, N-[{4-(3,4-dichlorophenyl)-piperazin-1-yl}-methyl]-pyrrolidine-2,5-dione]
inhibition of NQNO-induced mutagenicity in BB7 strain (in words) [1]: weakly suppressed | Antimutagenicity BB7 number of revertants Mean ± SD [1]: 32 ± 3 | Antimutagenicity BB7 Inhib. (%) of mutagenicity [1]: (15) % | effect on nocifensive response, first (neurogenic) phase (in words) ([2]; 0–5 min after 5 % formalin): did not attenuate the nocifensive response in this phase in a statistically significant manner | antinociceptive effect (reduction of licking response), second (late) phase [2]: 89% | % inhibition of control specific binding ([3]; 10 μM): 12.3% | % inhibition of control specific binding ([3]; 100 μM): 65.9% | Mutagenicity BB7XM number of revertants Mean ± SD [4]: 9 ± 3 | Mutagenicity BB7XM M.I. (mutagenic index) [4]: 0.7 | Latency to status epilepticus (s) ± SEM ([5]; dose 30 mg/kg i.p.): 465.8 ± 37.61 s | Latency to status epilepticus (s) ± SEM ([5]; dose 100 mg/kg i.p.): 669.4 ± 73.04 s | Anticonvulsant effect (%) (prolongation of latency time to seizures vs vehicle) ([5]; dose 100 mg/kg i.p.): 95% and 95.4% | antinociceptive activity in the hot plate test (in words) [6]: did not show activity | Mutagenicity BB7 number of revertants Mean ± SD [7]: 19 ± 2 | Mutagenicity BB7 M.I. (mutagenic index) [7]: 1.2 | ED50 in the s.c.PTZ test [8]: 128.8 mg/kg | Antimutagenicity BB7XM number of revertants Mean ± SD [9]: 24 ± 2 | Antimutagenicity BB7XM Inhib. (%) of mutagenicity [9]: (1) % | motor coordination in the rotarod test (in words) [10]: did not impair the motor coordination | influence on locomotor activity (number of crossings, in words) [11]: significantly reduced the number of crossings | increase of electroconvulsive threshold (ECT) vs vehicle ([12]; dose 10 mg/kg i.p.): 27% | CS50 (mA) (CI) ([12]; dose 10 mg/kg i.p.): 8.42 (7.55–9.39)** mA | increase of electroconvulsive threshold (ECT) vs vehicle ([12]; dose 30 mg/kg i.p.): 61% | CS50 (mA) (CI) ([12]; dose 30 mg/kg i.p.): 10.53 (8.06–13.77)**** mA
